Among the test systems are 786-0 renal; HCT-15 colon; IGROV1 ovarian; MCF7 breast; NCI-H226 lung; SK-MEL-2 melanoma; SNB-75 CNS; SR leukemia; T-47D breast; UACC-62 melanoma; UO-31 renal.
Assay in all cases: DTP human tumour cell line panel, 48 h

Structures are written as SMILES.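 Five concentrations, 48 hours, 96-well plates. TGI is the concentration that stops growth completely.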 Some results are limits rather than exact numbers.

For the molecule `ClCc1nc2ccccc2[nH]1`, the TGI with 786-0 renal, in the test on HCT-15 colon, in the test on IGROV1 ovarian, in the test with MCF7 breast, in the test with NCI-H226 lung and with SK-MEL-2 melanoma was more than 100 µM in each case. For the same molecule, the TGI with SNB-75 CNS, with SR leukemia, with T-47D breast, in the test on UACC-62 melanoma and in the test with UO-31 renal was more than 100 µM each time.
In the case of `COc1ccc(N2C(=O)C3CC(c4ccc(Br)cc4)c4c([nH]c5ccccc45)C3C2=O)cc1` (stereo unspecified), the TGI was 4.45 µM in the test on 786-0 renal; more than 100 µM with HCT-15 colon; 26.2 µM in the test with IGROV1 ovarian; 77.2 µM in the test with NCI-H226 lung; more than 100 µM with SK-MEL-2 melanoma; 22.5 µM in the test with SNB-75 CNS. Moreover, the concentration for total growth inhibition (TGI) was determined as 32.3 µM in the test with UACC-62 melanoma and 27.1 µM in the test with UO-31 renal.
On to `NC1=Nc2ccccc2Sc2nncn21`, for which the TGI in the test with 786-0 renal, with HCT-15 colon, with IGROV1 ovarian, in the test with MCF7 breast, with NCI-H226 lung and in the test with SK-MEL-2 melanoma was more than 100 µM in each case. The concentration for total growth inhibition (TGI) with SNB-75 CNS, with SR leukemia, in the test on T-47D breast, with UACC-62 melanoma and in the test on UO-31 renal was more than 100 µM in each case.
For `O=C1c2ccccc2N(O)C1(c1ccccc1)C1CCCC=C1N1CCOCC1` (stereo unspecified), the TGI in the test with HCT-15 colon, in the test on IGROV1 ovarian, in the test with NCI-H226 lung, in the test on SNB-75 CNS, with SR leukemia and with UACC-62 melanoma was more than 100 µM in each case. Moreover, the TGI with UO-31 renal was more than 100 µM.
As for `O=C(OC1=CCN(Br)C1=O)C1=C(O)C(=O)N(Br)C1`, the total growth inhibition concentration (TGI) with 786-0 renal is 30.4 µM; in the test on HCT-15 colon, more than 100 µM; in the test with IGROV1 ovarian, more than 100 µM; with MCF7 breast, more than 100 µM; in the test with NCI-H226 lung, more than 100 µM; in the test with SK-MEL-2 melanoma it was more than 100 µM. For the same molecule, the TGI with SNB-75 CNS is 61.3 µM; with SR leukemia it was 52.3 µM; in the test with T-47D breast, 45.2 µM; with UACC-62 melanoma, 36.3 µM; in the test on UO-31 renal, more than 100 µM.
Turning to `CC1CCN(C(C)C)P(=S)(Cc2ccccc2)O1` (stereo unspecified), the concentration for total growth inhibition (TGI) in the test on 786-0 renal, with HCT-15 colon, in the test with IGROV1 ovarian, with MCF7 breast, with NCI-H226 lung and in the test on SK-MEL-2 melanoma was more than 100 µM in each case. The TGI with SR leukemia was more than 100 µM; in the test on T-47D breast it was 56.8 µM; in the test with UACC-62 melanoma it was more than 100 µM; with UO-31 renal it was more than 100 µM.
As for `OC1NC2Nc3ccccc3NC2NC1O` (stereo unspecified), the TGI with 786-0 renal, in the test on HCT-15 colon, in the test on IGROV1 ovarian, in the test on MCF7 breast, in the test on NCI-H226 lung and with SK-MEL-2 melanoma was more than 100 µM in each case. The TGI with SNB-75 CNS, with SR leukemia, in the test with T-47D breast and in the test on UACC-62 melanoma was more than 100 µM each time.
Take `CCCCCCN(CCCCCC)CCC(=O)c1ccc2cc(Br)c3ccccc3c2c1`: the total growth inhibition concentration (TGI) is more than 100 µM in the test with 786-0 renal; more than 100 µM in the test on HCT-15 colon; more than 100 µM in the test on IGROV1 ovarian; 54.9 µM with MCF7 breast; more than 100 µM in the test with NCI-H226 lung; 92.9 µM with SK-MEL-2 melanoma. The TGI is 14.3 µM in the test on SR leukemia, 60.5 µM in the test on T-47D breast, 74.5 µM with UACC-62 melanoma and more than 100 µM in the test with UO-31 renal.
In the case of `CC(C)(C)OC(=O)NCC(CNC(=O)OC(C)(C)C)C(N)=O`, the TGI in the test on 786-0 renal, with HCT-15 colon, in the test with IGROV1 ovarian, in the test on MCF7 breast, with NCI-H226 lung and in the test with SR leukemia was more than 100 µM in each case. Also, the TGI with T-47D breast, with UACC-62 melanoma and with UO-31 renal was more than 100 µM each time.
With `O=S1(=O)c2ccccc2N(O)C2=NCCN21`, the TGI with 786-0 renal, in the test on IGROV1 ovarian, in the test on NCI-H226 lung, with SK-MEL-2 melanoma, with SNB-75 CNS and in the test on SR leukemia was more than 100 µM in each case. Further, the TGI in the test with UACC-62 melanoma and with UO-31 renal was more than 100 µM each time.
On to `COc1ccc(C2SCC(=O)N2c2ccc(-n3c(-c4ccccc4)nc4ccccc4c3=O)cc2)cc1` (stereo unspecified), for which the TGI with 786-0 renal, in the test on HCT-15 colon, in the test on IGROV1 ovarian, in the test with MCF7 breast, in the test on NCI-H226 lung and in the test on SK-MEL-2 melanoma was more than 100 µM throughout. Also, the TGI in the test with SNB-75 CNS is 79.3 µM; with SR leukemia, more than 100 µM; in the test on T-47D breast, more than 100 µM; with UACC-62 melanoma it was more than 100 µM; in the test with UO-31 renal, more than 100 µM.
As for `O=C1C(Cl)=C(Cl)C(=O)C(CCNc2nccs2)=C1Cl`, the TGI in the test with 786-0 renal was 45 µM; in the test on HCT-15 colon, 43.7 µM; with IGROV1 ovarian it was 42.2 µM; with MCF7 breast it was more than 100 µM; in the test on SK-MEL-2 melanoma, 75.6 µM; with SNB-75 CNS, 69.5 µM. The concentration for total growth inhibition (TGI) is more than 100 µM with SR leukemia, more than 100 µM with T-47D breast, 63.6 µM with UACC-62 melanoma and 46.4 µM in the test with UO-31 renal.

Usually TGI stands for the concentration giving total growth inhibition. A low value points to greater sensitivity of the cells.

The record behind these values is PubChem BioAssay (NCI).
